Experimental data from ChEMBL document CHEMBL1201862, “PubChem BioAssay data set” (2004).
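Cells were grown in 96-well plates and exposed to each compound for 48 hours at five concentrations; endpoints were interpolated linearly between bracketing concentrations, or set to the highest concentration if not reached. GI50 = concentration required for 50% inhibition of growth.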 Active and inactive are the calls of the source. No stated cut-off is given here; in the data, active = GI50 up to about 1.1 µM and inactive = higher.

What was measured:
Assay in all cases: NCI tumour cell line growth inhibition, 48 h
OVCAR-5 = test system: OVCAR-5
SNB-75 = test system: SNB-75
NCI-H460 = test system: NCI-H460
HL-60 = test system: HL-60
SW-620 = test system: SW-620
RXF 393 = test system: RXF 393
NCI-H23 = test system: NCI-H23
NCI-H226 = test system: NCI-H226
LXFL 529 = test system: LXFL 529
SK-OV-3 = test system: SK-OV-3
UO-31 = test system: UO-31
M19-MEL = test system: M19-MEL
LOX IMVI = test system: LOX IMVI
786-0 = test system: 786-0
CAKI-1 = test system: CAKI-1
HCC 2998 = test system: HCC 2998
K562 = test system: K562
SNB-78 = test system: SNB-78
HOP-62 = test system: HOP-62
UACC-62 = test system: UACC-62
HCT-116 = test system: HCT-116
DMS-114 = test system: DMS-114
ACHN = test system: ACHN
HOP-92 = test system: HOP-92
NCI-H522 = test system: NCI-H522
HCT-15 = test system: HCT-15
KM-20L2 = test system: KM-20L2
A549 = test system: A549
SK-MEL-28 = test system: SK-MEL-28
EKVX = test system: EKVX
DMS-273 = test system: DMS-273
TK-10 = test system: TK-10
IGROV-1 = test system: IGROV-1
U-251 = test system: U-251
Malme-3M = test system: Malme-3M
OVCAR-8 = test system: OVCAR-8
CCRF-CEM = test system: CCRF-CEM
MOLT-4 = test system: MOLT-4
A498 = test system: A498
SF-539 = test system: SF-539
UACC-257 = test system: UACC-257
DLD-1 = test system: DLD-1
HOP-18 = test system: HOP-18
COLO 205 = test system: COLO 205
HT-29 = test system: HT-29
SK-MEL-2 = test system: SK-MEL-2
M14 = test system: M14
SK-MEL-5 = test system: SK-MEL-5
SF-295 = test system: SF-295
SN12C = test system: SN12C
SF-268 = test system: SF-268
OVCAR-3 = test system: OVCAR-3
SR = test system: SR
OVCAR-4 = test system: OVCAR-4
SNB-19 = test system: SNB-19
KM12 = test system: KM12
RPMI-8226 = test system: RPMI-8226
XF498 = test system: XF498

With `COC1=C(Br)C(=O)c2nc(C)ccc2C1=O` the GI50 (OVCAR-5) was 20.4 µM (inactive), the GI50 (SNB-75) was 19.2 µM (inactive) and the GI50 (NCI-H460) was 15.8 µM (inactive). For the same compound, the GI50 (HL-60) was 0.993 µM (active), the GI50 (SW-620) was 8.15 µM (inactive) and the GI50 (RXF 393) was 11.2 µM (inactive). The GI50 (NCI-H23) was 12.7 µM (inactive), the GI50 (NCI-H226) was 22.8 µM (inactive) and the GI50 (LXFL 529) was 6.28 µM (inactive). For the same compound, the GI50 (SK-OV-3) was 19.4 µM (inactive), the GI50 (UO-31) was 18.5 µM (inactive) and the GI50 (M19-MEL) was 14.1 µM (inactive). The GI50 (LOX IMVI) was 8.39 µM (inactive), the GI50 (786-0) was 14.1 µM (inactive) and the GI50 (CAKI-1) was 15.6 µM (inactive). The GI50 (HCC 2998) was 18.1 µM (inactive), the GI50 (K562) was 8.67 µM (inactive) and the GI50 (SNB-78) was 18.7 µM (inactive). The GI50 (HOP-62) was > 44.6 µM (inactive), the GI50 (UACC-62) was 19 µM (inactive) and the GI50 (HCT-116) was 8.18 µM (inactive). The GI50 (DMS-114) was 15 µM (inactive), the GI50 (ACHN) was 10.7 µM (inactive) and the GI50 (HOP-92) was 7.18 µM (inactive). The GI50 (NCI-H522) was 6.97 µM (inactive), the GI50 (HCT-15) was 14.1 µM and the GI50 (KM-20L2) was 19 µM (inactive). The GI50 (A549) was 20.3 µM (inactive), the GI50 (SK-MEL-28) was 18.4 µM (inactive) and the GI50 (EKVX) was 19.3 µM (inactive). The GI50 (DMS-273) was 17.2 µM (inactive), the GI50 (TK-10) was 18.4 µM (inactive) and the GI50 (IGROV-1) was 19.6 µM (inactive). The GI50 (U-251) was 15.1 µM (inactive), the GI50 (Malme-3M) was 16.8 µM (inactive) and the GI50 (OVCAR-8) was 6.73 µM (inactive). For the same compound, the GI50 (CCRF-CEM) was 0.871 µM (active), the GI50 (MOLT-4) was 2.4 µM (inactive) and the GI50 (A498) was 22 µM (inactive). For the same compound, the GI50 (SF-539) was 21.5 µM (inactive), the GI50 (UACC-257) was 13.6 µM (inactive) and the GI50 (DLD-1) was 5.33 µM (inactive). For the same compound, the GI50 (HOP-18) was 17.1 µM (inactive), the GI50 (COLO 205) was 12.1 µM (inactive) and the GI50 (HT-29) was 19.4 µM (inactive). For the same compound, the GI50 (SK-MEL-2) was 16.2 µM (inactive), the GI50 (M14) was 15 µM (inactive) and the GI50 (SK-MEL-5) was 18.1 µM (inactive). The GI50 (SF-295) was 20.4 µM (inactive), the GI50 (SN12C) was 15.7 µM (inactive) and the GI50 (SF-268) was 17.5 µM (inactive). The GI50 (OVCAR-3) was 7.46 µM (inactive), the GI50 (SR) was 3.56 µM (inactive) and the GI50 (OVCAR-4) was 13.3 µM (inactive). The GI50 (SNB-19) was > 40.9 µM (inactive) and the GI50 (KM12) was 17.7 µM (inactive).

`O=C(Nc1nc2ccc([N+](=O)[O-])cc2s1)C(=O)C(C(=O)c1ccccc1F)C1OC(=O)c2ccccc21` (stereo unspecified) was tested, and the GI50 (OVCAR-5) was 71 µM (inactive), the GI50 (SNB-75) was 30.9 µM (inactive) and the GI50 (NCI-H460) was 40.5 µM (inactive). The GI50 (HL-60) was 20.3 µM (inactive), the GI50 (SW-620) was 41.3 µM (inactive) and the GI50 (NCI-H23) was 67.1 µM (inactive). The GI50 (LXFL 529) was 34 µM (inactive), the GI50 (SK-OV-3) was 29 µM (inactive) and the GI50 (UO-31) was 38 µM (inactive). For the same compound, the GI50 (M19-MEL) was 31 µM (inactive), the GI50 (LOX IMVI) was 27 µM (inactive) and the GI50 (CAKI-1) was 41.4 µM (inactive). The GI50 (HCC 2998) was 24.9 µM (inactive), the GI50 (K562) was 29.9 µM (inactive) and the GI50 (SNB-78) was 25.1 µM (inactive). The GI50 (HOP-62) was 62.2 µM (inactive), the GI50 (UACC-62) was 29.6 µM (inactive) and the GI50 (HCT-116) was 37.1 µM (inactive). For the same compound, the GI50 (DMS-114) was 25.1 µM (inactive), the GI50 (RPMI-8226) was 16.4 µM (inactive) and the GI50 (ACHN) was 59.4 µM (inactive). For the same compound, the GI50 (HOP-92) was > 100 µM (inactive), the GI50 (NCI-H522) was 17.4 µM (inactive) and the GI50 (HCT-15) was 31.2 µM. The GI50 (KM-20L2) was 49.4 µM (inactive), the GI50 (A549) was 57 µM (inactive) and the GI50 (SK-MEL-28) was 32.1 µM (inactive). The GI50 (EKVX) was 22.1 µM (inactive), the GI50 (DMS-273) was 33.7 µM (inactive) and the GI50 (TK-10) was 87.1 µM (inactive). For the same compound, the GI50 (IGROV-1) was 75.5 µM (inactive), the GI50 (U-251) was 16.9 µM (inactive) and the GI50 (OVCAR-8) was 47.9 µM (inactive). The GI50 (CCRF-CEM) was 17.3 µM (inactive), the GI50 (MOLT-4) was 17.7 µM (inactive) and the GI50 (A498) was 42.8 µM (inactive). For the same compound, the GI50 (SF-539) was 21.3 µM (inactive), the GI50 (UACC-257) was 92.5 µM (inactive) and the GI50 (DLD-1) was 41 µM (inactive). For the same compound, the GI50 (COLO 205) was 21.3 µM (inactive), the GI50 (HT-29) was 40 µM (inactive) and the GI50 (SK-MEL-2) was 20.4 µM (inactive). The GI50 (M14) was 56.2 µM (inactive), the GI50 (SK-MEL-5) was 71.9 µM (inactive) and the GI50 (SF-295) was 56 µM (inactive). For the same compound, the GI50 (SN12C) was 40.5 µM (inactive), the GI50 (SF-268) was 34.2 µM (inactive) and the GI50 (XF498) was 48.3 µM (inactive). The GI50 (SR) was 16.8 µM (inactive), the GI50 (OVCAR-4) was 46.8 µM (inactive) and the GI50 (SNB-19) was 28.6 µM (inactive). For the same compound, the GI50 (KM12) was 55.1 µM (inactive).

`COc1cc(C2c3cc4c(cc3[C@@H](NCCN3CCOCC3)C3COC(=O)[C@H]23)OCO4)cc(OC)c1O` (stereo partly specified) was tested, and the GI50 (SW-620) was 1.23 µM (inactive), the GI50 (RXF 393) was 2.3 µM (inactive) and the GI50 (LXFL 529) was 11.3 µM (inactive). For the same compound, the GI50 (UO-31) was 1.77 µM (inactive), the GI50 (LOX IMVI) was 0.962 µM (active) and the GI50 (786-0) was 1.19 µM (inactive). The GI50 (CAKI-1) was 1.97 µM (inactive), the GI50 (HCC 2998) was 1.97 µM (inactive) and the GI50 (K562) was 5.56 µM (inactive). The GI50 (SNB-78) was 16.5 µM (inactive), the GI50 (HOP-62) was 0.541 µM (active) and the GI50 (UACC-62) was 1.21 µM (inactive). For the same compound, the GI50 (HCT-116) was 3.01 µM (inactive), the GI50 (HOP-92) was 1.04 µM (active) and the GI50 (NCI-H522) was 2.51 µM (inactive). The GI50 (HCT-15) was 1.65 µM, the GI50 (KM-20L2) was 2.96 µM (inactive) and the GI50 (SK-MEL-28) was 3.71 µM (inactive). The GI50 (EKVX) was 14.2 µM (inactive), the GI50 (DMS-273) was 0.437 µM (active) and the GI50 (TK-10) was 7.85 µM (inactive). For the same compound, the GI50 (IGROV-1) was 8.11 µM (inactive), the GI50 (U-251) was 0.906 µM (active) and the GI50 (Malme-3M) was 2.31 µM (inactive). For the same compound, the GI50 (OVCAR-8) was 2.18 µM (inactive), the GI50 (SF-539) was 0.836 µM (active) and the GI50 (UACC-257) was 3.23 µM (inactive). For the same compound, the GI50 (DLD-1) was 6.18 µM (inactive), the GI50 (HOP-18) was 2.81 µM (inactive) and the GI50 (HT-29) was 4.65 µM (inactive). For the same compound, the GI50 (SK-MEL-2) was 4.17 µM (inactive), the GI50 (M14) was 2.57 µM (inactive) and the GI50 (SF-295) was 1.35 µM (inactive). The GI50 (SF-268) was 1.56 µM (inactive), the GI50 (OVCAR-3) was 8.02 µM (inactive) and the GI50 (OVCAR-4) was 17.8 µM (inactive). The GI50 (SNB-19) was 2.51 µM (inactive) and the GI50 (KM12) was 2.42 µM (inactive).
